Data published in patent US10570129B2 (Zoetis Services LLC, priority 2015, dated 2020).

Assays:
Haemonchus contortus L3 = assay: microbe, parasite or virus in culture; type: cell-based; conditions: Haemonchus contortus, 96 h, read-out: HcL3 Minimal Effective Concentration (MEC)
D. immitis microfilariae = assay: Dirofilaria immitis, microfilariae (DiMF) in vitro motility assay; type: cell-based; conditions: Dirofilaria immitis, 72 h, read-out: DiMF minimally effective dose (MEC)

Compound | minimal effective concentration (Haemonchus contortus L3) [µM] | minimal effective concentration (D. immitis microfilariae) [µM]
N#Cc1ccc2c3c(n(C(=O)NCc4ccnc(Cl)c4)c2c1)CCN(C/C=C/c1ccc(F)c(Cl)c1)C3 [Example 27, (E)-2-(3-(3-chloro-4-fluorophenyl)allyl)-N-((2-chloropyridin-4-yl)methyl)-7-cyano-1,2,3,4-tetrahydro-5H-pyrido[4,3-b]indole-5-carboxamide] | 1.8 | 1.8
O=C(NCc1ccnc(Cl)c1)n1c2c(c3cc(OC(F)(F)F)c(Cl)cc31)CN(C/C=C/c1ccc(Cl)cc1)CC2 [Example 496, (E)-7-chloro-2-(3-(4-chlorophenyl)allyl)-N-((2-chloropyridin-4-yl)methyl)-8-(trifluoromethoxy)-1,2,3,4-tetrahydro-5H-pyrido[4,3-b]indole-5-carboxamide] | 1 | 5.7
N#Cc1ccc(/C=C/CN2CCc3c(c4ccc(OC(F)(F)F)cc4n3C(=O)NCc3ccnc(F)c3)C2)cc1F [Example 372, (E)-2-(3-(4-cyano-3-fluorophenyl)allyl)-N-((2-fluoropyridin-4-yl)methyl)-7-(trifluoromethoxy)-1,2,3,4-tetrahydro-5H-pyrido[4,3-b]indole-5-carboxamide] | 0.5 | 5.7
N#Cc1ccc2c(c1)c1c(n2C(=O)NCc2ccnc(Cl)c2)CCN(C/C=C/c2ccc(Cl)c(F)c2)C1 [Example 72, (E)-2-(3-(4-chloro-3-fluorophenyl)allyl)-N-((2-chloropyridin-4-yl)methyl)-8-cyano-1,2,3,4-tetrahydro-5H-pyrido[4,3-b]indole-5-carboxamide] | 0.2 | 5.1
O=C(NCc1ccnc(Cl)c1)n1c2c(c3c(Cl)cccc31)CN(C/C=C/c1ccc(OC(F)(F)F)cc1)CC2 [Example 222, (E)-9-chloro-N-((2-chloropyridin-4-yl)methyl)-2-(3-(4-(trifluoromethoxy)-phenyl)allyl)-1,2,3,4-tetrahydro-5H-pyrido[4,3-b]indole-5-carboxamide] | > 100 | 10
O=C(NCc1ccnc(Cl)c1)n1c2c(c3ccc(Br)cc31)CN(C/C=C/c1ccc(Cl)c(F)c1)CC2 [Example 437, (E)-7-bromo-2-(3-(4-chloro-3-fluorophenyl)allyl)-N-((2-chloropyridin-4-yl)methyl)-1,2,3,4-tetrahydro-5H-pyrido[4,3-b]indole-5-carboxamide] | 1 | 10
CS(=O)(=O)c1ccc2c(c1)c1c(n2C(=O)NCc2ccnc(Cl)c2)CCN(C/C=C/c2ccc(F)cc2F)C1 [Example 456, (E)-N-((2-chloropyridin-4-yl)methyl)-2-(3-(2,4-difluorophenyl)allyl)-8-(methylsulfonyl)-1,2,3,4-tetrahydro-5H-pyrido[4,3-b]indole-5-carboxamide] | 1.3 | 10
O=C(NCc1ccnc(Cl)c1)n1c2c(c3cc(OC(F)(F)F)ccc31)CN(C/C=C/c1ccc(OC(F)(F)F)cc1)CC2 [Example 395, (E)-N-((2-chloropyridin-4-yl)methyl)-8-(trifluoromethoxy)-2-(3-(4-(trifluoro-methoxy)phenyl)allyl)-1,2,3,4-tetrahydro-5H-pyrido[4,3-b]indole-5-carboxamide] | 3.3 | 22.2
O=C(NCc1ccnc(F)c1)n1c2c(c3ccc(OC(F)(F)F)cc31)CN(C/C=C/c1ccc(F)c(Cl)c1)CC2 [Example 375, (E)-2-(3-(3-chloro-4-fluorophenyl)allyl)-N-((2-fluoropyridin-4-yl)methyl)-7-(trifluoromethoxy)-1,2,3,4-tetrahydro-5H-pyrido[4,3-b]indole-5-carboxamide] | 1.8 | 18.2
O=C(NCc1ccnc(F)c1)n1c2c(c3ccc(OC(F)(F)F)cc31)CN(C/C=C/c1ccc(Cl)cc1F)CC2 [Example 371, (E)-2-(3-(4-chloro-2-fluorophenyl)allyl)-N-((2-fluoropyridin-4-yl)methyl)-7-(trifluoromethoxy)-1,2,3,4-tetrahydro-5H-pyrido[4,3-b]indole-5-carboxamide] | 1.3 | 24.5
COc1cc(CNC(=O)n2c3c(c4ccc(C#N)cc42)CN(C/C=C/c2ccc(Cl)c(F)c2)CC3)ccn1 [Example 59, (E)-2-(3-(4-chloro-3-fluorophenyl)allyl)-7-cyano-N-((2-methoxypyridin-4-yl)methyl)-1,2,3,4-tetrahydro-5H-pyrido[4,3-b]indole-5-carboxamide] | 7.7 | 10
O=C(NCc1ccnc(F)c1)n1c2c(c3c(C(F)(F)F)cc(F)cc31)CN(C/C=C/c1ccc(Cl)cc1)CC2 [Example 326, (E)-2-(3-(4-chlorophenyl)allyl)-7-fluoro-N-((2-fluoropyridin-4-yl)methyl)-9-(trifluoromethyl)-1,2,3,4-tetrahydro-5H-pyrido[4,3-b]indole-5-carboxamide] | 7.6 | 10
N#Cc1ccc(/C=C/CN2CCc3c(c4cc(Cl)ccc4n3C(=O)NCc3ccnc(Cl)c3)C2)cc1F [Example 235, (E)-8-chloro-N-((2-chloropyridin-4-yl)methyl)-2-(3-(4-cyano-3-fluorophenyl)allyl)-1,2,3,4-tetrahydro-5H-pyrido[4,3-b]indole-5-carboxamide] | 0.1 | > 100
N#Cc1ccc(/C=C/CN2CCc3c(c4cc(F)c(C#N)cc4n3C(=O)NCc3ccnc(Cl)c3)C2)cc1 [Example 173, (E)-N-((2-chloropyridin-4-yl)methyl)-7-cyano-2-(3-(4-cyanophenyl)allyl)-8-fluoro-1,2,3,4-tetrahydro-5H-pyrido[4,3-b]indole-5-carboxamide] | 18.2 | > 100
O=C(NCc1ccnc(Cl)c1)n1c2c(c3c(C(F)(F)F)cccc31)CN(C/C=C/c1ccc(C(F)(F)F)cc1)CC2 [Example 162, (E)-N-((2-chloropyridin-4-yl)methyl)-9-(trifluoromethyl)-2-(3-(4-(trifluoromethyl)-phenyl)allyl)-1,2,3,4-tetrahydro-5H-pyrido[4,3-b]indole-5-carboxamide] | > 100 | 10
N#Cc1cccc2c1c1c(n2C(=O)NCc2ccnc(Cl)c2)CCN(C/C=C/c2ccc(Cl)cc2Cl)C1 [Example 4, (E)-N-((2-chloropyridin-4-yl)methyl)-9-cyano-2-(3-(2,4-dichlorophenyl)allyl)-1,2,3,4-tetrahydro-5H-pyrido[4,3-b]indole-5-carboxamide] | > 100 | 10
N#Cc1ccc2c(c1)c1c(n2C(=O)NCc2ccnc(F)c2)CCN(C/C=C/c2ccc(F)c(F)c2F)C1 [Example 110, (E)-8-cyano-N-((2-fluoropyridin-4-yl)methyl)-2-(3-(2,3,4-trifluorophenyl)allyl)-1,2,3,4-tetrahydro-5H-pyrido[4,3-b]indole-5-carboxamide] | 0.3 | > 100
